Converted amounts (≈) assume the structure as drawn.

Data on ten compounds can be found in paper PMC7046902, “Daphnane Diterpenoids from Trigonostemon lii and Inhibition Activities Against HIV-1” (Natural Products and Bioprospecting, 2020).

In one data set the test system is pNL4-3gp41(36G)V38E,N42S. The class given is cell-based, HIV-1. Particulars: T20-resistant strain pNL4-3gp41(36G)V38E,N42S in C8166 cells.
Another data set is described as follows: in vitro. Particulars: human; C8166 cells, MTT, 3 days; read-out: cytotoxicity CC50. Format: cell-based. The protocol:
(§1) Cellular toxicity of compounds was assessed by MTT method. Briefly, cells were seeded on a microtiter plate in the absence or presence of various concentrations of compounds in triplicate and incubated at 37 °C in a humid atmosphere of 5% CO2 for 3 days. Twenty microliters of MTT reagent (5 mg/mL in PBS) was added to each well, then incubated at 37 °C for 4 h, 100 μL of 50% DMF-20% SDS was added. After the formazan was dissolved completely, the plates were read on a Bio-Tek ELx 800 ELISA reader at 595 nm/630 nm (A595/630). The cytotoxic concentration that caused the reduction of viable cells by 50% (CC50) was calculated from dose–response curve.
as §1, with “b. MTT-based cytotoxicity assay. Cellular” for “Cellular”, “4h,” for “4 h,”, “595nm/630” for “595 nm/630”, “dose-response curve ^[2].” for “dose–response curve.”

Data set [1] has as its target T1, purified recombinant HIV-1 RT (Human immunodeficiency virus type 1 group M subtype B, UniProt P04585).
T1 construct: purified recombinant HIV-1 RT; purchased Roche
Put plainly: RT (reverse transcriptase) assay, ELISA RT kit. The class given is biochemical. Particulars: read-out: EC50, inhibition of recombinant HIV-1 RT activity (converted). How it is done:
HIV-1 RT activity was measured by ELISA RT kit (Roche) using a commercially available kit according to the protocol provided by the manufacturer. Samples were incubated with DIG-labeled-reaction mixture at 37 °C for 15 h. Anti-DIG-POD solution was added afterward followed by substrate ABTS. The absorbance at 405/490 nm (A405/490) was determined in the ELISA reader.
e. RT (reverse transcriptase) assay. HIV-1 RT activity was measured by ELISA RT kit (Roche) using a commercially available kit according to the protocol provided by the manufacturer. Samples were incubated with DIG-labeled-reaction mixture at 37 °C for 15 h. Anti-DIG-POD solution was added afterward followed by substrate ABTS. The absorbance at 405/490 nm (A405/490) was determined in the ELISA reader ^[4].
A general note: In an ELISA, binding on a coated surface is turned into a signal by an enzyme label.

The test system of data set [2] is fusion of H9/HIV-1IIIB cells with uninfected C8166 cells. Put plainly: cells. Particulars: Human immunodeficiency virus 1, C8166, 6 h, read-out: EC50, inhibition of fusion of H9/HIV-1IIIB cells with uninfected C8166 cells.
Experimental: (§3) C8166 cells (3 × 10^4) co-cultured with 1 × 10^4 virus (HIV-1IIIB) infected H9 cells in the presence or absence of the compound with various concentrations at 37 °C in a humidified atmosphere of 5% CO2. T20 was used as positive control. After 6 h incubation, the number of syncytia was scored under an inverted microscope [18].
(§4) Co-cultivation assay. C8166 cells (3×10^4) co-cultured with 1×10^4 virus (HIV-1IIIB) infected H9 cells in the presence or absence of the compound with various concentrations at 37 °C in a humidified atmosphere of 5% CO2. Dextran sulfate (DS) was used as positive control. After 6 h incubation, the number of syncytia was scored under an inverted microscope ^[3].
Another data set deals with HIV-1IIIB. Put plainly: microbe, parasite or virus in culture. Format: cell-based. Particulars: for EC50: Human immunodeficiency virus 1, 72 h, read-out: anti-HIV-1 EC50 (syncytia formation induced by HIV-1IIIB). The protocol: (§2) In the presence of 100 μL various concentrations of compounds, C8166 cells (4 × 10^5/mL) were infected with virus (HIV-1IIIB) at a multiplicity of infection (M.O.I) of 0.06. The final volume per well was 200 μL. Control assays were performed without the testing compounds in HIV-1IIIB infected and uninfected cultures. AZT was included as positive control. After 3 days of culture, the cytopathic effect (CPE) was measured by counting the number of syncytia (multinucleated giant cell). Percentage inhibition of syncytia formation was calculated and 50% effective concentration (EC50) was calculated.
as §2, with “c. Syncytia assay. In” for “In”, “(4×10^5/mL)” for “(4 × 10^5/mL)”, “calculated ^[3].” for “calculated.”

For a further data set, the system named is pNL4-3gp41(36G)V38A,N42T. Format: cell-based, HIV-1. Particulars: T20-resistant strain pNL4-3gp41(36G)V38A,N42T in C8166 cells.
In a further data set the test system is HIV-1. Particulars: cited from earlier work.
The test system of another data set is C8166. In words: in vitro. Particulars: C8166 cells, MTT, 3 days. The class given is cell-based. How it is done:
as §1
as §1, with “b. MTT-based cytotoxicity assay. Cellular” for “Cellular”, “4h,” for “4 h,”, “595nm/630” for “595 nm/630”, “dose-response curve ^[2].” for “dose–response curve.”

For data set [3], the system named is fusion of H9/HIV-1IIIB cells with uninfected C8166 cells. Particulars: 6 h.
Experimental: as §3, §4
The mark [4] stands for this setting: C8166 cells, HIV-1IIIB, M.O.I 0.06, 3 days.

A word on the CC50: it is the concentration giving 50% cytotoxicity. Turning to `CC1CCCCCCC(C)C(=O)OC2C(=CCl)C=C3C2(O)C(O)C2(CO)OC2C2C4OC5(c6ccccc6)OC(C(C)C32O5)C4(O)C(O)(CO)C1` (stereo not drawn) [Compound 6, Trigocheriolide E], the “EC50 (syncytium formation)” value turned out to be 0.00374 µg/mL (≈ 5.1 nM) with pNL4-3gp41(36G)V38E,N42S and 0.00381 µg/mL (≈ 5.2 nM) with pNL4-3gp41(36G)V38A,N42T. In addition, the CC50 in the data set “in vitro” is 18.3 µg/mL (≈ 24900 nM). The results for the EC50 (in data set [1]; in data set [2]; in the data set on HIV-1IIIB (setting [4])) were 261 µM, 0.00176 µg/mL (≈ 2.4 nM) and 0.0015 µg/mL (≈ 2.05 nM), respectively. The “selectivity index CC50/EC50” value in the data set with HIV-1IIIB (C8166 cells, HIV-1IIIB) is 12193.33.

As for `C=C1C=C2C3(O)C1OC(=O)C(C)CCCCCCC(C)CC(O)(CO)C1(O)C4OC5(c6ccccc6)OC1C(C1OC1(CO)C3O)C2(O5)C4C` (stereo not drawn) [Compound 3, Trigonolactone E], the “EC50 (syncytium formation)” value with pNL4-3gp41(36G)V38E,N42S came to 0.00443 µg/mL (≈ 6.34 nM). In addition, in “in vitro”, the CC50 came out at 17.5 µg/mL (≈ 25000 nM). Also, the EC50 in data set [1] is over 429 µM; in data set [2], 0.00185 µg/mL (≈ 2.65 nM); with HIV-1IIIB (setting [4]), 0.00059 µg/mL (≈ 0.844 nM). Also, the “selectivity index CC50/EC50” value with HIV-1IIIB (C8166 cells, HIV-1IIIB) was 29610.17.

Turning to `C=C1C=C2C3(O)C1OC(=O)C(C)CCCCCCC(C)CC(C)(O)C1(O)C4OC5(c6ccccc6)OC1C(C1OC1(CO)C3O)C2(O5)C4C` (stereo not drawn) [Compound 1, Trigonolactone B], the “EC50 (syncytium formation)” value came out at 0.0033 µg/mL (≈ 4.83 nM) in the data set on pNL4-3gp41(36G)V38E,N42S and 0.0026 µg/mL (≈ 3.81 nM) in the data set on pNL4-3gp41(36G)V38A,N42T. Moreover, the half-maximal cytotoxic concentration (CC50) in the data set “in vitro” was 16.5 µg/mL (≈ 24100 nM). Also, the EC50 in [1] was over 439 µM; in data set [2], 0.00225 µg/mL (≈ 3.3 nM); in the data set with HIV-1IIIB (setting [4]), 0.00106 µg/mL (≈ 1.55 nM).

trigonothyrins C: in the data set with HIV-1, the “anti-HIV-1 EC50” value was 2.19 µg/mL.

Take `CC1CCCCCCC(C)C(=O)OC2C(=CCl)C=C3C2(O)C(O)C2(CO)OC2C2C4OC5(c6ccccc6)OC(C(C)C32O5)C4(O)C(C)(O)C1` (stereo not drawn) [Compound 4, Trigocherriolide B]: the “EC50 (syncytium formation)” value with pNL4-3gp41(36G)V38E,N42S came to 0.00297 µg/mL (≈ 4.14 nM). For the same compound, the 50% cytotoxic concentration (CC50) in “in vitro” was found to be 14.9 µg/mL (≈ 20800 nM). The EC50 in [1] is 278 µM; in [2], 0.00873 µg/mL (≈ 12.2 nM); with HIV-1IIIB (setting [4]) it was 0.00822 µg/mL (≈ 11.5 nM). Moreover, in the data set on HIV-1IIIB (C8166 cells, HIV-1IIIB), the “selectivity index CC50/EC50” value came out at 1811.43.

`C=C1C=C2C3(O)C1OC(=O)C(C)CCCCCCC(C)CC(O)(COC(=O)c1ccccc1O)C1(O)C4OC5(c6ccccc6)OC1C(C1OC1(CO)C3O)C2(O5)C4C` (stereo not drawn) [Compound 2, Trigonolactone D]: the “EC50 (syncytium formation)” value was determined as 0.00272 µg/mL (≈ 3.32 nM) with pNL4-3gp41(36G)V38E,N42S and 0.00583 µg/mL (≈ 7.12 nM) in the data set on pNL4-3gp41(36G)V38A,N42T. The 50% cytotoxic concentration (CC50) in the data set “in vitro” was 8.49 µg/mL (≈ 10400 nM). For the same compound, the EC50 in [1] was 60.2 µM; in data set [2] it was 0.00462 µg/mL (≈ 5.64 nM); in the data set on HIV-1IIIB (setting [4]), 0.0019 µg/mL (≈ 2.32 nM). Also, the “selectivity index CC50/EC50” value with HIV-1IIIB (C8166 cells, HIV-1IIIB) was found to be 4468.42.

Turning to `Cc1cn([C@H]2C[C@H](N=[N+]=[N-])[C@@H](CO)O2)c(=O)[nH]c1=O` [AZT, reference compound], the “cytotoxicity CC50” value in the data set with C8166 is 1006.69 µg/mL. Besides, the “anti-HIV-1 EC50 (syncytia formation induced by HIV-1IIIB)” value in the data set on HIV-1IIIB (setting [4]) was 0.00508 µg/mL.

In the case of Enfuvirtide, the “anti-HIV-1 EC50 (syncytia formation induced by HIV-1IIIB)” value in the data set with HIV-1IIIB (1IIIB) amounted to 0.09725 µg/mL. Further, in data set [3], the “EC50, inhibition of fusion of H9/HIV-1IIIB cells with uninfected C8166 cells” value is 0.00977 µg/mL.

Turning to trigonothyrins F, in the data set with HIV-1, the “anti-HIV-1 EC50” value was 0.13 µg/mL.

`CC1CCCCCCC(C)C(=O)OC2C(=CCl)C=C3C2(O)C(O)C2(CO)OC2C2C4OC5(c6ccccc6)OC(C(C)C32O5)C4(O)C(O)(COC(=O)c2ccccc2O)C1` (stereo not drawn) [Compound 5, Trigocherriolide A]: the “EC50 (syncytium formation)” value in the data set on pNL4-3gp41(36G)V38E,N42S worked out at 0.00288 µg/mL (≈ 3.37 nM); with pNL4-3gp41(36G)V38A,N42T, 0.00343 µg/mL (≈ 4.02 nM). In addition, in “in vitro”, the half-maximal cytotoxic concentration (CC50) turned out to be 15.5 µg/mL (≈ 18200 nM). Moreover, the EC50 in data set [1] is 313 µM; in data set [2], 0.00106 µg/mL (≈ 1.24 nM); with HIV-1IIIB (setting [4]), 0.00287 µg/mL (≈ 3.36 nM). Further, the “selectivity index CC50/EC50” value with HIV-1IIIB (C8166 cells, HIV-1IIIB) is recorded as 5407.67.
